Values after ≈ are worked out from the molar mass of the structure shown.
Legend:
[1] = system: Staphylococcus aureus-SMITH (GC 4543); assay: acute lethal infection in mice; format: in vivo; details: acute lethal infection, female CD-1 mice, intraperitoneal challenge, intravenous 30 min. after infection, 7 day survival
Procedure, shortened: (§1)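 Female CD-1 mice (20+/−2 gm) were infected intraperitoneally with enough bacteria, suspended in trypticase soy broth or hog gastric mucin, to kill untreated controls within 24-48 hr. Compound in saline or 5% dextrose was given intravenously 30 min post-infection, five mice per dose. ED50 came from pooled 7 day survival of 3 tests.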

[2] = system: Enterococcus faecalis (GC 2246); assay: acute lethal infection in mice; format: in vivo; details: female CD-1 mice, intraperitoneal challenge, intravenous 30 min. after infection, 7 day survival
Procedure, shortened: as §1

[3] = system: Staphylococcus sp.; assay: in vitro antibacterial evaluation, MIC by broth dilution; format: cell-based; details: broth dilution, 18 hours at 35° C.
Procedure, shortened: (§2)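 Test organisms, which included recent clinical isolates resistant to methicillin, penicillin and/or vancomycin, were inoculated at 5×10^5 CFU/mL into Muller-Hinton II […] containing antibiotic at 64-0.06 μg/mL. Minimum inhibitory concentrations were then read as the lowest level inhibiting growth.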

[4] = system: Enterococcus sp.; assay: as above; format: cell-based; details: broth dilution, 18 hours at 35° C.
Procedure, shortened: as §2

[5] = system: Streptococcus sp.; assay: as above; format: cell-based; details: broth dilution, 18 hours at 35° C.
Procedure, shortened: as §2

[6] = system: Escherichia coli; assay: as above; format: cell-based; details: 18 hours at 35° C., strain ATCC 25922
Procedure, shortened: as §2

Compound: CCCC(CCC)C(=O)OCC1OC(OC2C(CO)OC(Oc3ccc(CC4NC(=O)C(C(C)c5ccccc5)NC(=O)CNC(=O)C(CO)NC(=O)C(C(O)C5CNC(=N)N5C5OC(CO)C(O)C(O)C5O)NC(=O)C(C(O)C5CNC(=N)N5)NC4=O)cc3)C(O)C2O)C(O)C(O)C1O (stereo not drawn) [Example 99c, Cyclo[glycyl-β-methylphenylalanyl-O-[4-O-[6-O-(2-propylpentanoyl)hexopyranosyl]-hexolpyranosyl]tyrosyl-3-(2-iminoimidazolidin-4-yl)seryl-3-(3-hexopyranosyl-2-iminoimidazolidin-4-yl)serylseryl]]
- median effective dose (ED50), Staphylococcus aureus-SMITH (GC 4543) [1]: 0.52 mg/kg
- median effective dose (ED50), Enterococcus faecalis (GC 2246) [2]: 4.3 mg/kg
- MIC Coagulase Negative Staphylococcus (GC 4547) [3]: 1 µg/mL (≈ 0.703 µM)
- MIC Coagulase Negative Staphylococcus (GC 4548) [3]: 1 µg/mL (≈ 0.703 µM)
- MIC Coagulase Negative Staphylococcus (GC 4549) [3]: 1 µg/mL (≈ 0.703 µM)
- MIC Coagulase Negative Staphylococcus (GC 4551) [3]: 2 µg/mL (≈ 1.41 µM)
- MIC Coagulase Negative Staphylococcus (ID-3941) [3]: 1 µg/mL (≈ 0.703 µM)
- MIC Staphylococcus aureus (ATCC 29213) [3]: 1 µg/mL (≈ 0.703 µM)
- MIC Staphylococcus aureus (GC 1131) [3]: 2 µg/mL (≈ 1.41 µM)
- MIC Staphylococcus aureus (GC 4541) [3]: 2 µg/mL (≈ 1.41 µM)
- MIC Staphylococcus aureus (GC 4542) [3]: 1 µg/mL (≈ 0.703 µM)
- MIC Staphylococcus aureus (GC 4544) [3]: 2 µg/mL (≈ 1.41 µM)
- MIC Staphylococcus aureus (GC 4545) [3]: 1 µg/mL (≈ 0.703 µM)
- MIC Staphylococcus aureus-SMITH (GC 4543) [3]: 1 µg/mL (≈ 0.703 µM)
- MIC Staphylococcus haemolyticus (GC 4546) [3]: 1 µg/mL (≈ 0.703 µM)
- MIC Staphylococcus haemolyticus (GC 4546) ([3]; strain GC 4546): 1 µg/mL (≈ 0.703 µM)
- MIC Coagulase Negative Staphylococcus (GC 4547) ([3]; strain GC 4547): 1 µg/mL (≈ 0.703 µM)
- MIC Coagulase Negative Staphylococcus (GC 4548) ([3]; strain GC 4548): 1 µg/mL (≈ 0.703 µM)
- MIC Coagulase Negative Staphylococcus (GC 4549) ([3]; strain GC 4549): 1 µg/mL (≈ 0.703 µM)
- MIC Coagulase Negative Staphylococcus (GC 4551) ([3]; strain GC 4551): 2 µg/mL (≈ 1.41 µM)
- MIC Coagulase Negative Staphylococcus (ID-3941) ([3]; strain ID-3941): 1 µg/mL (≈ 0.703 µM)
- MIC Staphylococcus aureus-SMITH (GC 4543) ([3]; strain SMITH GC 4543): 1 µg/mL (≈ 0.703 µM)
- MIC Staphylococcus aureus (ATCC 29213) ([3]; strain ATCC 29213): 1 µg/mL (≈ 0.703 µM)
- MIC Staphylococcus aureus (GC 1131) ([3]; strain GC 1131): 2 µg/mL (≈ 1.41 µM)
- MIC Staphylococcus aureus (GC 4541) ([3]; strain GC 4541): 2 µg/mL (≈ 1.41 µM)
- MIC Staphylococcus aureus (GC 4542) ([3]; strain GC 4542): 1 µg/mL (≈ 0.703 µM)
- MIC Staphylococcus aureus (GC 4544) ([3]; strain GC 4544): 2 µg/mL (≈ 1.41 µM)
- MIC Staphylococcus aureus (GC 4545) ([3]; strain GC 4545): 1 µg/mL (≈ 0.703 µM)
- MIC Enterococcus avium (GC 4558) ([4]; Enterococcus avium (GC 4558)): 4 µg/mL (≈ 2.81 µM)
- MIC Enterococcus faecalis (ATCC 29212) ([4]; Enterococcus faecalis (ATCC 29212)): 4 µg/mL (≈ 2.81 µM)
- MIC Enterococcus faecalis (GC 2242) ([4]; Enterococcus faecalis (GC 2242)): 4 µg/mL (≈ 2.81 µM)
- MIC Enterococcus faecalis (GC 4552) ([4]; Enterococcus faecalis (GC 4552)): 4 µg/mL (≈ 2.81 µM)
- MIC Enterococcus faecalis (GC 4553) ([4]; Enterococcus faecalis (GC 4553)): 4 µg/mL (≈ 2.81 µM)
- MIC Enterococcus faecalis (GC 4554) ([4]; Enterococcus faecalis (GC 4554)): 4 µg/mL (≈ 2.81 µM)
- MIC Enterococcus faecium (GC 2243) ([4]; Enterococcus faecium (GC 2243)): 4 µg/mL (≈ 2.81 µM)
- MIC Enterococcus faecium (GC 4556) ([4]; Enterococcus faecium (GC 4556)): 4 µg/mL (≈ 2.81 µM)
- MIC Enterococcus faecium (GC 4557) ([4]; Enterococcus faecium (GC 4557)): 2 µg/mL (≈ 1.41 µM)
- MIC Enterococcus faecalis (ATCC 29212) ([4]; strain ATCC 29212): 4 µg/mL (≈ 2.81 µM)
- MIC Enterococcus faecalis (GC 2242) ([4]; strain GC 2242): 4 µg/mL (≈ 2.81 µM)
- MIC Enterococcus faecium (GC 2243) ([4]; strain GC 2243): 4 µg/mL (≈ 2.81 µM)
- MIC Enterococcus faecalis (GC 4552) ([4]; strain GC 4552): 4 µg/mL (≈ 2.81 µM)
- MIC Enterococcus faecalis (GC 4553) ([4]; strain GC 4553): 4 µg/mL (≈ 2.81 µM)
- MIC Enterococcus faecalis (GC 4554) ([4]; strain GC 4554): 4 µg/mL (≈ 2.81 µM)
- MIC Enterococcus faecium (GC 4556) ([4]; strain GC 4556): 4 µg/mL (≈ 2.81 µM)
- MIC Enterococcus faecium (GC 4557) ([4]; strain GC 4557): 2 µg/mL (≈ 1.41 µM)
- MIC Enterococcus avium (GC 4558) ([4]; strain GC 4558): 4 µg/mL (≈ 2.81 µM)
- MIC Streptococcus agalactiae (GC 4564) ([5]; Streptococcus agalactiae (GC 4564)): <0.5 µg/mL
- MIC Streptococcus pneumoniae (GC 4565) ([5]; Streptococcus pneumoniae (GC 4565)): <0.5 µg/mL
- MIC Streptococcus pyogenes (ID-3187) ([5]; Streptococcus pyogenes (ID-3187)): <0.5 µg/mL
- MIC Streptococcus agalactiae (GC 4564) ([5]; strain GC 4564): <0.5 µg/mL
- MIC Streptococcus pneumoniae (GC 4565) ([5]; strain GC 4565): <0.5 µg/mL
- MIC Streptococcus pyogenes (ID-3187) ([5]; strain ID-3187): <0.5 µg/mL
- MIC Escherichia coli (ATCC 25922) [6]: 64 µg/mL (≈ 45 µM)

Reference: patent US6914045B2, “Glycopeptide antibiotics” (Wyeth Holdings Corporation, priority 2001, dated 2005)
